Test results taken from patent publication US20190000789A1, “COMPOSITION AND METHOD FOR TREATING INFECTIONS CAUSED BY VANCOMYCIN-RESISTANT INFECTIOUS AGENTS IN A SUBJECT” (priority 2015, published 2019).

Key:
Format in all cases: cell-based, Streptomyces coelicolor
[1] = test system: S. coelicolor M145 ΔvanX (LAG3); assay: MIC of vancomycin on MM agar plates with added D-Ala; settings: M145 ΔvanX, 1000-fold lower D-Ala concentration than for M145
Description: VanX effectively eradicates the D-Ala-D-Ala dipeptide, thereby counteracting the accumulation of wild-type precursors and supporting vancomycin resistance (Lessard and Walsh, 1999; Tan et al., 2002). Therefore, a vanX null mutant was created using a similar strategy as for ddl, replacing the coding region of vanX by the apramycin resistance cassette aacC4. The mutant was created in both the parental strain S. coelicolor M145 and in its ddl suppressor mutant LAG2, generating LAG3 (M145 ΔvanX) and LAG4 (M145 Δddl ΔvanX vanS::IS466A), respectively.
LAG4 produced 20% wt precursors prior to the addition of D-Ala.
(§1) Escherichia coli strains JM109 (Sambrook et al., 1989) and ET12567 (Kieser et al., 2000) were used for routine cloning procedures and for extracting non-methylated DNA, respectively. Cells of E. coli were grown in Luria-Berani broth (LB) at 37° C. Streptomyces coelicolor A3(2) M145 was the parent of all mutants described in this work. All media and routine Streptomyces techniques were carried out as described (Kieser et al., 2000). SFM (soy flour mannitol) agar plates were used for propagating S. coelicolor strains and to prepare spore suspensions. For liquid-grown cultures, S. coelicolor mycelia were grown in normal minimal media with phosphate (NMMP) supplemented with 1% (w/v) mannitol as the sole carbon source. The MIC of vancomycin against S. coelicolor M145 and its mutant derivatives were determined by growth on minimal media (MM) agar plates supplemented with 1% mannitol as the sole carbon source, and 0, 2, 4, 8, 16, 32, 64, 128, 256 or 512 μg/ml vancomycin, in combination with 0, 1, 5, 10 or 50 mM of D-Ala or L-Ala. The vanX deletion mutants have been tested with 1, 5, 10, 50 and 100 μM D-Ala and L-Ala.

[2] = test system: S. coelicolor LAG2; assay: LC-MS analysis of peptidoglycan precursors, including time course after alanine addition
Description: In order to get more insights into the synthesis of vancomycin-sensitive (i.e., wild-type) or the alternate vancomycin-resistant peptidoglycan, the pool of peptidoglycan precursors was analyzed by Liquid Chromatography coupled to Mass Spectrometry (LC-MS). When cells produce wild-type PG, only the MurNac-pentapeptide with a D-Ala-D-Ala terminus are detected, while vancomycin-resistant PG precursors have a D-Ala-D-Lac terminus. To analyze the precursors produced in S. coelicolor M145 and its mutant derivatives LAG1 (Δddl) and LAG2 (Δddl vanS::IS466A) in the presence or absence of vancomycin, the strains were grown until exponential phase, after which the cultures were harvested, washed and the precursors extracted with 5% TCA. The supernatants were desalted, concentrated and analyzed by LC-MS (see Materials and Methods section).
(§2) To investigate what the effect would be of the addition of excess of D-Ala on the accumulation of wild-type precursors, a time-course experiment was performed to follow the effect of D-Ala addition on the ratio between wild-type and resistant precursors. Therefore, 300 ml liquid-grown NMMP cultures were supplemented with either D-Ala or L-Ala (control) at 50 mM end concentration, and 10 ml samples were collected prior to and 1, 5, 15, 30, 60, 120 and 180 minutes after the addition of either alanine stereoisomer. Samples were immediately filtered by vacuum filtration, washed in 0.9% NaCl, biomass scraped off the filter, added to a tube containing 5% TCA and samples prepared as described above. […] However, addition of 50 mM D-Ala triggered the production of small amounts of wt precursor (1%) within 1 minute. After 15 minutes, this amount had increased to 4%, which appeared to be close to the maximum, with levels of wt precursors never exceeding 5%.
(§3) For the precursor isolation and identification, a modification of the method described previously by Hong and colleagues (Hong et al., 2004) was used. 10 μg vancomycin was added to the strains at the moment of inoculation. The strains were grown in NMMP (1% (w/v) Mannitol, 50 mM MgCl2) until mid-log phase (OD-0.3-0.4) and mycelia were harvested by centrifugation at 4° C. and washed in 0.9% NaCl. The mycelium was extracted with 5% cold trichloric acid (TCA) for 30 minutes at 4° C. This was centrifuged and the supernatant desalted on a Sephadex G-25 column (Illustra NAP-10 Columns, GE Healthcare, Pittsburgh), and concentrated by rotary evaporation. The concentrated precursors were dissolved in HPLC-grade water and separated by LC-MS using a gradient of 0-20% acetonitrile in water with 0.1% TFA. The elution was monitored at 254 nm and monitored by the sizes eluted (1193.8-1195.3).
For the measurement over time, the protocol was adjusted in the following way: 300 ml NMMP cultures were grown until exponential phase, at which point a 10 ml sample was taken (sample t=0) and 50 mM of D-Ala or L-Ala was added, followed by further sampling after 1, 5, 15, 30, 60, 120 and 180 minutes. Samples were rapidly filtered with a vacuum pump and washed with 0.9% (w/v) NaCl, mycelia scraped off the filter and transferred to 5% TCA.

[3] = test system: S. coelicolor LAG4 (LAG2 ΔvanX); assay: LC-MS analysis of peptidoglycan precursors, time course after D-Ala addition
Description: as §2
as §3, with “(1193.8-1195.3). […]” for “(1193.8-1195.3).”

[4] = test system: S. coelicolor M145; assay: MIC of vancomycin on MM agar plates with added D-Ala or L-Ala; settings: M145, up to 50 mg/ml L-Ala (control)
Description: The naturally vancomycin-resistant model organism S. coelicolor M145 was used as the initial test system. The strain was grown on solid minimal medium (MM) agar plates with increasing amounts of D-Ala and vancomycin. D-Ala was thereby added in concentrations of 5, 10 and 50 mM and the effect on the MIC of vancomycin assessed. As a first control, L-Ala was added and, as a second control, no amino acids were added. […] This was not altered when the culture media were supplemented with up to 50 mg/ml L-Ala (Table 1 and FIG. 6).
as §1

[5] = test system: S. coelicolor LAG2 (ddl suppressor mutant); assay: as above; settings: LAG2, L-Ala (control)
Description: VanS is the sensory kinase of a two-component system formed with VanR, and it has been shown previously that certain mutations in vanS will constitutively upregulate the vancomycin resistance cluster, explaining the viability of strain LAG2 in the absence of vancomycin.
as §1

C[C@@H](N)C(=O)O [D-Ala, D-alanine]
stronger reduction of the MIC of vancomycin as compared to M145 [1]: 4 fold | wt precursor ([2]; LAG2, 50 mM D-Ala, after 15 minutes): 4% | wt precursor, maximum level ([2]; LAG2, 50 mM D-Ala, up to 180 minutes): ≤ 5% | wt precursor ([2]; LAG2, 50 mM D-Ala, within 1 minute): 1% | wild-type precursor ([3]; LAG4, 3 hours after addition of D-Ala): 80% | wild-type precursor ([3]; LAG4, after addition of D-Ala, 1 and 5 minutes): 25% | wild-type precursor ([3]; LAG4, after addition of D-Ala, 15-30 minutes): 40%

C[C@H](N)C(=O)O [L-Ala]
effect of L-Ala on the MIC of vancomycin [4]: not altered | effect of L-Ala on the MIC for vancomycin [5]: did not affect the MIC | production of wt precursors ([2]; LAG2, 50 mM L-Ala (control)): did not activate the production of detectable levels
